# Assays:
# [1] = not given; remark: listed apart in the source
compound,measurement,setting,value
"O=C(O)c1cn(C2CC2)c2cc(N3CCNCC3)c(F)cc2c1=O [cipro, ciprofloxacin]",standard affinity of cipro for cPU,"T 318.15 K, RT ln K",1.12 kcal/mol
same,saturation value,as quoted in the description,0.45 g/kg
same,exhaustion of cipro on cPU,"[1]; applied concentration 0.5% owf, pH 8.6, 20:1, 45° C., 3.5 hours",about 60%
same,ciprofloxacin taken up by cPU,"[1]; dyeing temperature 55° C., pH 8.6, 20:1, 2% owf, 3.5 hours",70%
same,cipro exhausted on cPU,"[1]; dyeing time 3.5 hours, pH 8.6, 20:1, 2% owf, 45° C.",about 61%
